Experiment [1] addresses Glycogen synthase kinase-3 beta (Homo sapiens, UniProt P49841). As to the kind of experiment: Inhibition of glycogen synthase kinase-3 beta, purified from porcine brain or expressed in and purified from insect Sf9 cells. It counts as cell-based, Sus scrofa.
Experiment [2] deals with CDK1/cyclin B (Marthasterias glacialis).
Experiment [3] deals with Cyclin-dependent kinase 5/CDK5 activator 1 (Homo sapiens, UniProt Q00535). As to the kind of experiment: Inhibitory activity against recombinant mammalian cyclin-dependent kinase 5 (p35 NCK5a) expressed in Escherichia coli.

Each structure is given as a SMILES string.

Sequence of Glycogen synthase kinase-3 beta (P49841 whole entry): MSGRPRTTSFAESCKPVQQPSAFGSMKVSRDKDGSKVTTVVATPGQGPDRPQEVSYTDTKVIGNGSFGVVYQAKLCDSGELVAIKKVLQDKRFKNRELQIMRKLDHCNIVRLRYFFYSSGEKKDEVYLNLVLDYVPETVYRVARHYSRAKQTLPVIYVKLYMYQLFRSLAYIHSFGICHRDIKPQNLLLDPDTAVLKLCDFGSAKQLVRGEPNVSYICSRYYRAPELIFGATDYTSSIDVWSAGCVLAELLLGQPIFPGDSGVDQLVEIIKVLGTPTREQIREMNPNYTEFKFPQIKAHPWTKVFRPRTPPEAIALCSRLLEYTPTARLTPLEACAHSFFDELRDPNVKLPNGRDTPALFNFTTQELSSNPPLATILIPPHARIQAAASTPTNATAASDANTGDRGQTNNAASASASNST
Sequence of Cyclin-dependent kinase 5/CDK5 activator 1 (Q00535 whole entry): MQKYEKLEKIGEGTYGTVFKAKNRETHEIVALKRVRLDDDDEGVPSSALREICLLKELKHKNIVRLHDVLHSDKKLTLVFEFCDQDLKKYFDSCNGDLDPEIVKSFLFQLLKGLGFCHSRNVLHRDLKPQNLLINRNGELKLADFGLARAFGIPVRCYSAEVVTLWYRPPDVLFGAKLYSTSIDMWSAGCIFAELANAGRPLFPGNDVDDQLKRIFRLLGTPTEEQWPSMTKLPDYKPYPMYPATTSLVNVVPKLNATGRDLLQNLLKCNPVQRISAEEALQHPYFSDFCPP
Sequence of Cyclin-dependent kinase 5/CDK5 activator 1 (Q15078 whole entry, further chain): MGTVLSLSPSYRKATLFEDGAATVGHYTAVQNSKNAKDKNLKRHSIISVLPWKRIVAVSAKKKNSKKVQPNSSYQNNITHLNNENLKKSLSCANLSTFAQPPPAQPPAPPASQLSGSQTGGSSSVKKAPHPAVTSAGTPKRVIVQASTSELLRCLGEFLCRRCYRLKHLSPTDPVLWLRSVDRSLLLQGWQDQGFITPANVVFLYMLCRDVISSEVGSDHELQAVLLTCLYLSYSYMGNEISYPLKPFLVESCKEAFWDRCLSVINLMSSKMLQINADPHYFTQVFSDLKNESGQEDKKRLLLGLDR

As to `Cn1c(-c2ccccc2)cc2nccnc21`, the figures for the IC50 in experiment [1] and in experiment [2] were more than 100 µM and 100 µM, respectively.

Consider `Clc1ccc(-c2[nH]c3nccnc3c2Cc2ccccc2)cc1`, for which the IC50 in experiment [3] was more than 100 µM; in experiment [1], 6.8 µM.

As to `FC(F)(F)c1ccc(-c2cc3[nH]ccnc-3n2)cc1`, the IC50 is more than 100 µM in experiment [3], 7.2 µM in experiment [1] and 6 µM in experiment [2].

Take `COc1ccc(-c2[nH]c3nccnc3c2CC2CC2)cc1`: the values for the IC50 in experiment [3], in experiment [1] and in experiment [2] were more than 100 µM, 1.1 µM and 1 µM, respectively.

In experiment [2], `Clc1ccc(-c2cc3[nH]ccnc-3n2)cc1` displayed an IC50 of 1.8 µM.

As for `Clc1cc(Cl)cc(-c2cc3[nH]ccnc-3n2)c1`, the IC50 in experiment [3], in experiment [1] and in experiment [2] was more than 100 µM throughout.

Turning to `CC(C)c1c(-c2ccc(Cl)cc2)[nH]c2nccnc12`, the IC50 in experiment [3] was 13 µM; in experiment [1], 0.75 µM; in experiment [2], 0.85 µM.

Regarding `CCCc1c(-c2ccc(OC)cc2)[nH]c2nccnc12`, the results for the IC50 in experiment [3], in experiment [1] and in experiment [2] were 0.5 µM, 0.4 µM and 0.4 µM, respectively.

As to `COc1cc(-c2cc3[nH]ccnc-3n2)cc(OC)c1OC`, the IC50 in experiment [3] is more than 100 µM; in experiment [1], 85 µM; in experiment [2], 100 µM.

On to `c1ccc(-c2cc3[nH]ccnc-3n2)nc1`, for which the IC50 in experiment [3] came to 53 µM; in experiment [1] it was 15 µM; in experiment [2], 21 µM.

On to `C=CCc1c(-c2ccc(OC)cc2)[nH]c2nccnc12`, for which the IC50 worked out at 2 µM in experiment [3], 0.6 µM in experiment [1] and 1 µM in experiment [2].

Consider `Oc1ccccc1-c1cc2[nH]ccnc-2n1`, for which the IC50 in experiment [3] was 3 µM; in experiment [1] it was 6.5 µM; in experiment [2], 2.5 µM.

For `COc1cccc(-c2cc3[nH]ccnc-3n2)c1`, the IC50 in experiment [3] was 10 µM; in experiment [1], 3.2 µM; in experiment [2], 13 µM.

As for `c1csc(-c2cc3[nH]ccnc-3n2)c1`, the IC50 amounted to 2 µM in experiment [3], 1.2 µM in experiment [1] and 7 µM in experiment [2].

On to `CCCCCCCc1c(-c2ccc(OC)cc2)[nH]c2nccnc12`, for which the IC50 in experiment [3] was more than 100 µM; in experiment [1], more than 10 µM; in experiment [2], 7 µM.

On to `COc1ccc(-c2[nH]c3nccnc3c2CC2CCCCC2)cc1`, for which the IC50 is more than 100 µM in experiment [3], 6.8 µM in experiment [1] and 5 µM in experiment [2].

Consider `c1c[nH]c2cc(-c3ccc(C4OCCO4)cc3)nc-2n1`, for which the values for the IC50 in experiment [3], in experiment [1] and in experiment [2] were 15 µM, 20 µM and 8 µM, respectively.

Regarding `Clc1ccc(-c2[nH]c3nccnc3c2CC2CCCCC2)cc1`, the IC50 in experiment [3] is more than 100 µM; in experiment [1], 8 µM; in experiment [2] it was 10 µM.

On to `COc1ccc(-c2[nH]c3nccnc3c2C(C)C)cc1`, for which the IC50 amounted to 2 µM in experiment [3] and 0.5 µM in experiment [1].

Regarding `Oc1ccc(-c2[nH]c3nccnc3c2CC2CC2)cc1`, the IC50 in experiment [3] is more than 100 µM; in experiment [1] it was 3 µM; in experiment [2], 50 µM.

Take `c1ccc(Cc2c(-c3ccccc3)[nH]c3nccnc23)cc1`: the IC50 is more than 100 µM in experiment [3], 1 µM in experiment [1] and 2 µM in experiment [2].

In the case of `COc1ccc(-c2[nH]c3nccnc3c2C)cc1OC`, the IC50 stood at 1 µM in experiment [3], 2 µM in experiment [1] and 1.1 µM in experiment [2].

Regarding `c1ccc(-c2cc3[nH]c4ccccc4nc-3n2)cc1`, the IC50 in experiment [3], in experiment [1] and in experiment [2] was more than 100 µM throughout.

For `Cc1c(-c2ccc(Cl)cc2)[nH]c2nccnc12`, the IC50 stood at 5 µM in experiment [3] and 1.7 µM in experiment [1].

Regarding `Cc1c(-c2ccc(OS(=O)(=O)N(C)C)cc2)[nH]c2nccnc12`, the IC50 is 0.9 µM in experiment [3], 0.5 µM in experiment [1] and 0.7 µM in experiment [2].

As to `Fc1ccc(-c2cc3[nH]ccnc-3n2)cc1`, the IC50 in experiment [3] stood at 1 µM; in experiment [1] it was 1.9 µM; in experiment [2], 2.3 µM.

In the case of `COc1ccc(-c2[nH]c3nccnc3c2CCCCl)cc1`, the IC50 in experiment [3] is 3 µM; in experiment [1], 2.5 µM.

As for `CCCCc1c(-c2ccc(OC)cc2)[nH]c2nccnc12` [ALOISINE], the figures for the IC50 in experiment [3] and in experiment [1] were 1.5 µM and 0.92 µM, respectively.

For `COc1ccc(-c2cc3ccc[nH]c-3n2)cc1`, in experiment [2], the IC50 came out at 60 µM.

On to `Clc1ccc(C2(c3cc4[nH]ccnc-4n3)CC2)cc1`, for which the IC50 in experiment [3] was determined as 100 µM; in experiment [1], 1 µM; in experiment [2], 30 µM.

With `c1ccc2c(-c3cc4[nH]ccnc-4n3)cccc2c1`, the results for the IC50 in experiment [3], in experiment [1] and in experiment [2] were 80 µM, 27 µM and more than 100 µM, respectively.

For the compound `Cc1c(-c2ccc(O)cc2)[nH]c2nccnc12`, the figures for the IC50 in experiment [3], in experiment [1] and in experiment [2] were 0.2 µM, 0.52 µM and 0.25 µM, respectively.

In turn, `Oc1cccc(-c2cc3[nH]ccnc-3n2)c1` had an IC50 in experiment [2] of 2.5 µM.

Consider `CN(C)c1ccc(-c2cc3[nH]ccnc-3n2)cc1`, for which the IC50 is more than 100 µM in experiment [3], 12 µM in experiment [1] and 20 µM in experiment [2].

Consider `COc1ccc(-c2cc3[nH]ccnc-3n2)cc1`, for which the figures for the IC50 in experiment [3], in experiment [1] and in experiment [2] were 4 µM, 1.1 µM and 2 µM, respectively.

Turning to `c1ccc(-c2cc3[nH]ccnc-3n2)cc1`, the IC50 stood at 4 µM in experiment [3], 2.3 µM in experiment [1] and 5 µM in experiment [2].

In the case of `c1coc(-c2cc3[nH]ccnc-3n2)c1`, the 50% inhibitory concentration (IC50) was 9.3 µM in experiment [3], 15 µM in experiment [1] and 12 µM in experiment [2].

For `CCCCc1c(-c2ccc(Cl)cc2)[nH]c2nccnc12`, the IC50 in experiment [3] was more than 100 µM; in experiment [1], 5.9 µM; in experiment [2] it was 0.2 µM.

In the case of `N#Cc1ccc(-c2cc3[nH]ccnc-3n2)cc1`, the IC50 in experiment [3] came to 13 µM; in experiment [1], 4.8 µM; in experiment [2] it was 3 µM.

As to `Brc1ccc(-c2cc3[nH]ccnc-3n2)cc1`, the figures for the half-maximal inhibitory concentration (IC50) in experiment [3] and in experiment [1] were more than 100 µM and 6 µM, respectively.

Turning to `Oc1ccc(-c2cc3[nH]ccnc-3n2)cc1`, the values for the IC50 in experiment [3], in experiment [1] and in experiment [2] were 1 µM, 1.2 µM and 1.2 µM, respectively.

Regarding `CCCc1c(-c2ccc(O)cc2)[nH]c2nccnc12`, the IC50 was 1.2 µM in experiment [3], 1.8 µM in experiment [1] and 25 µM in experiment [2].

With `Cc1c(C2(c3ccc(Cl)cc3)CC2)[nH]c2nccnc12`, the IC50 came to 100 µM in experiment [3] and 18 µM in experiment [1].

As to `COc1cc(OC)cc(-c2cc3[nH]ccnc-3n2)c1`, the IC50 in experiment [3] is more than 100 µM; in experiment [1], 60 µM; in experiment [2], 100 µM.

Consider `COc1ccccc1-c1cc2[nH]ccnc-2n1`, for which the figures for the IC50 in experiment [3], in experiment [1] and in experiment [2] were 23 µM, 3.3 µM and 20 µM, respectively.

`Cc1c[nH]c2cc(-c3ccccc3)nc-2n1`: the IC50 in experiment [3] is 100 µM; in experiment [1] it was more than 100 µM; in experiment [2], 69 µM.

Take `c1c[nH]c2cc(-c3ccsc3)nc-2n1`: the values for the IC50 in experiment [3], in experiment [1] and in experiment [2] were 1 µM, 0.8 µM and 2.3 µM, respectively.

With `Cc1ccc(-c2cc3[nH]ccnc-3n2)cc1`, the IC50 is 10 µM in experiment [3], 2.6 µM in experiment [1] and 3 µM in experiment [2].

Regarding `COc1ccc(-c2[nH]c3nccnc3c2C)cc1`, the IC50 in experiment [3] was found to be 0.8 µM; in experiment [1], 0.46 µM; in experiment [2], 0.3 µM.

In general, IC50 refers to the point on the concentration scale where inhibition reaches its midpoint.

Source of the values: ChEMBL document CHEMBL1145099, “Aloisines, a new family of CDK/GSK-3 inhibitors. SAR study, crystal structure in complex with CDK2, enzyme selectivity, and cellular effects” (J Med Chem, 2003).
